Measurements taken from patent publication US8673906B2, “Chromenone derivatives” (AstraZeneca AB, priority 2010, dated 2014).

target: PI3Kβ (Homo sapiens (Human), UniProt P42338); test: In vitro enzyme inhibition assay (Kinase Glo based enzyme activity assay); assay type: biochemical; conditions: Test (a), human recombinant enzyme; read-out: PI3Kβ inhibition, IC50
Experimental: (a) In Vitro Enzyme Inhibition Assay
The inhibition of PI3Kβ, PI3Kα, PI3Kγ and PI3Kδ was evaluated in a Kinase Glo based enzyme activity assay using human recombinant enzymes. The assay measures depletion of ATP after incubation with enzyme, PIP2 and ATP plus compound. ATP at the end of the reaction is detected by addition of Kinase Glo reagent, in this the Ultra Glo™ luciferase (Promega) uses the ATP as a substrate to catalyze the mono-oxygenation of luciferin and the generation of light. A direct relationship exists between the luminescence measured with the Kinase-Glo Plus Reagent and the amount of ATP remaining in a completed kinase reaction and luminescence is inversely related to kinase activity. Twelve different compound concentrations were tested and raw data from the inhibition of PI3 Kb, PI3Kα, PI3Kγ and PI3Kδ was plotted versus inhibitor concentration.
Compounds in 100% DMSO were added to assay plates by acoustic dispensing. PI3Kβ was added in a Tris buffer (50 mM Tris pH7.4, 0.05% CHAPS, 2.1 mM DTT, and 10 mM MgCl2) and allowed to preincubate with compound for 20 minutes prior to addition of substrate solution containing PIP2 and ATP. The enzyme reaction was stopped after 80 minutes by the addition of Kinase Glo detection solution. Plates were left for 30 minutes at room temperature then read on a Pherastar Instrument (Luminescence ATP 384 program) setting gain on max well. The final concentration of DMSO, ATP and PIP2 in the assay were, 1%, 80 μM, and 80 μM respectively.
IC50 values were calculated using a log curve fitting to a non-linear regression package, fitting raw data to inhibitor concentration.

Sequence of PI3Kβ (P42338 whole entry): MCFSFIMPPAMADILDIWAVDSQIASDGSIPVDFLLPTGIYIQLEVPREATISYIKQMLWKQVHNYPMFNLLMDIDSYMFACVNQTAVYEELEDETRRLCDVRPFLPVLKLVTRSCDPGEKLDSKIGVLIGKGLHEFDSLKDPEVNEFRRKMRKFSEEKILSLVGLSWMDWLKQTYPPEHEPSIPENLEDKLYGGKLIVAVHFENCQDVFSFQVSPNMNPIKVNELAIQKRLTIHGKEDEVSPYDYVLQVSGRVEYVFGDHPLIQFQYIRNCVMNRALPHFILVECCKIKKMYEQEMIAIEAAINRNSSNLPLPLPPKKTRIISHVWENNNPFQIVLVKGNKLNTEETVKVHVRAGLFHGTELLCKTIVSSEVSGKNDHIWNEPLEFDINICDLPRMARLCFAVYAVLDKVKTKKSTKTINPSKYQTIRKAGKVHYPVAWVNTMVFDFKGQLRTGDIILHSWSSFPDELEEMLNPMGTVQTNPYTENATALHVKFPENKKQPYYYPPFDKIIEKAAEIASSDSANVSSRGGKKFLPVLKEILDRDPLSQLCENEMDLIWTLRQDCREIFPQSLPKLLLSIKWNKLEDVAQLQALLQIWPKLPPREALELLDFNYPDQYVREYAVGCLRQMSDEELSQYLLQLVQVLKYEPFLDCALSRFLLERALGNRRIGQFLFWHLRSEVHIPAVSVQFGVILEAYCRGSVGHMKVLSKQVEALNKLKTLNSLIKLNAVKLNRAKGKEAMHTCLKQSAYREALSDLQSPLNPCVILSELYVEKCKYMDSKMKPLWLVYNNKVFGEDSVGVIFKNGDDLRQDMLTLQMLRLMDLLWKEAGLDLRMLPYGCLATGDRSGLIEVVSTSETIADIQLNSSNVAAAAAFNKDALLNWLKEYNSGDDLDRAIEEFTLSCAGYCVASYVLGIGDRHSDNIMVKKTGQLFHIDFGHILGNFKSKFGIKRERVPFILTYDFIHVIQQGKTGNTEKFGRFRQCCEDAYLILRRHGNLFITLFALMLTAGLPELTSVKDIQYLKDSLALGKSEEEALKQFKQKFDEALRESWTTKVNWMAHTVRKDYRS
Sequence of PI3Kβ (P27986 whole entry partner): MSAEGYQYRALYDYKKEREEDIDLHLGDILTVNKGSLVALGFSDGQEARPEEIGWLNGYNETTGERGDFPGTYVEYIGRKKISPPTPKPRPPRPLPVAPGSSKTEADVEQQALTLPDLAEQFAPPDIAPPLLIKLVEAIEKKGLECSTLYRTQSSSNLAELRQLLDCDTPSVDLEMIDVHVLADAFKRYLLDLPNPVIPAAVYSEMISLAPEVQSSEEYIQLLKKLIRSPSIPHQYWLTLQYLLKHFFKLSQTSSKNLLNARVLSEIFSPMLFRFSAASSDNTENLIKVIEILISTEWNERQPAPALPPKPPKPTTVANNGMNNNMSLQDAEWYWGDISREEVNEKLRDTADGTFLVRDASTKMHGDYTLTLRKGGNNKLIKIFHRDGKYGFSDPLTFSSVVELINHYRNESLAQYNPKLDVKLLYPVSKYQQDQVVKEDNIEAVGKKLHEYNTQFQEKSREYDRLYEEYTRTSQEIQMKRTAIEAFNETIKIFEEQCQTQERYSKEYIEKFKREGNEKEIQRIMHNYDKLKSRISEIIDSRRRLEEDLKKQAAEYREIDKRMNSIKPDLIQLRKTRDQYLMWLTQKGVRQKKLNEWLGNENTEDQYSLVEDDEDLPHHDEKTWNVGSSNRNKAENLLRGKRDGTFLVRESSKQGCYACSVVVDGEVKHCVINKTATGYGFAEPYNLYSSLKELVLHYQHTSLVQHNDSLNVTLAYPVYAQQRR

Going from `CC(Nc1cccc(C#N)c1)c1cc(C(=O)N(C)C)cc2c(=O)cc(N3CCOCC3)oc12` (stereo not shown) [Example 3.18, 8-(1-(3-cyanophenylamino)ethyl)-N,N-dimethyl-2-morpholino-4-oxo-4H-chromene-6-carboxamide] to `C#Cc1cccc(NC(C)c2cc(C(=O)N(C)C)cc3c(=O)cc(N4CCOCC4)oc23)c1` (stereo not shown) [Example 3.20, 8-(1-(3-ethynylphenylamino)ethyl)-N,N-dimethyl-2-morpholino-4-oxo-4H-chromene-6-carboxamide], the IC50 falls from 10 nM to 5 nM (2-fold).

`CC(Nc1cccc(Cl)c1Cl)c1cc(C(=O)N(C)C)cc2c(=O)cc(N3CCOCC3)oc12` (stereo not shown) [Example 3.19, 8-(1-(2,3-dichlorophenylamino)ethyl)-N,N-dimethyl-2-morpholino-4-oxo-4H-chromene-6-carboxamide] and `CC(Nc1cc(F)ccc1Cl)c1cc(C(=O)N(C)C)cc2c(=O)cc(N3CCOCC3)oc12` (stereo not shown) [Example 3.26, 8-(1-(2-chloro-5-fluorophenylamino)ethyl)-N,N-dimethyl-2-morpholino-4-oxo-4H-chromene-6-carboxamide] are within 1.5-fold of each other in IC50: 5 nM for the first, 4 nM for the second.

Compared with `Cc1ccc(C#N)cc1NC(C)c1cc(C(=O)N(C)C)cc2c(=O)cc(N3CCOCC3)oc12` (stereo not shown) [Example 3.21, 8-(1-(5-cyano-2-methylphenylamino)ethyl)-N,N-dimethyl-2-morpholino-4-oxo-4H-chromene-6-carboxamide], `COc1ccc(C#N)cc1NC(C)c1cc(C(=O)N(C)C)cc2c(=O)cc(N3CCOCC3)oc12` (stereo not shown) [Example 3.25, 8-(1-(5-cyano-2-methoxyphenylamino)ethyl)-N,N-dimethyl-2-morpholino-4-oxo-4H-chromene-6-carboxamide] is 1.9-fold higher in IC50: 114 nM for the first, 212 nM for the second. The first is the more potent here.

`Cc1ccc(F)cc1NC(C)c1cc(C(=O)N(C)C)cc2c(=O)cc(N3CCOCC3)oc12` (stereo not shown) [Example 3.22, 8-(1-(5-fluoro-2-methylphenylamino)ethyl)-N,N-dimethyl-2-morpholino-4-oxo-4H-chromene-6-carboxamide] and `Cc1ccc(Cl)cc1NC(C)c1cc(C(=O)N(C)C)cc2c(=O)cc(N3CCOCC3)oc12` (stereo not shown) [Example 3.28, 8-(1-(5-chloro-2-methylphenylamino)ethyl)-N,N-dimethyl-2-morpholino-4-oxo-4H-chromene-6-carboxamide] are the same in IC50: 4 nM for the first, 4 nM for the second.

Compared with `Cc1cc(C#N)cc(NC(C)c2cc(C(=O)N(C)C)cc3c(=O)cc(N4CCOCC4)oc23)c1` (stereo not shown) [Example 3.23, 8-(1-(3-cyano-5-methylphenylamino)ethyl)-N,N-dimethyl-2-morpholino-4-oxo-4H-chromene-6-carboxamide], `C#Cc1cc(F)cc(NC(C)c2cc(C(=O)N(C)C)cc3c(=O)cc(N4CCOCC4)oc23)c1` (stereo not shown) [Example 3.34, 8-(1-(3-ethynyl-5-fluorophenylamino)ethyl)-N,N-dimethyl-2-morpholino-4-oxo-4H-chromene-6-carboxamide] is 3.2-fold lower in IC50: 13 nM for the first, 4 nM for the second.

First: COc1ccc(F)cc1NC(C)c1cc(C(=O)N(C)C)cc2c(=O)cc(N3CCOCC3)oc12 (stereo not shown) [Example 3.24, 8-(1-(5-fluoro-2-methoxyphenylamino)ethyl)-N,N-dimethyl-2-morpholino-4-oxo-4H-chromene-6-carboxamide]
Second: CC(Nc1cc(F)ccc1C#N)c1cc(C(=O)N(C)C)cc2c(=O)cc(N3CCOCC3)oc12 (stereo not shown) [Example 3.35, 8-(1-(2-cyano-5-fluorophenylamino)ethyl)-N,N-dimethyl-2-morpholino-4-oxo-4H-chromene-6-carboxamide]
The IC50 of the first is 5.2-fold lower: 6 nM for the first, 31 nM for the second.

`CC(Nc1c(F)ccc(F)c1F)c1cc(C(=O)N(C)C)cc2c(=O)cc(N3CCOCC3)oc12` (stereo not shown) [Example 3.27, N,N-dimethyl-2-morpholino-4-oxo-8-(1-(2,3,6-trifluorophenylamino)ethyl)-4H-chromene-6-carboxamide] and `CC(Nc1c(F)ccc(Cl)c1F)c1cc(C(=O)N(C)C)cc2c(=O)cc(N3CCOCC3)oc12` (stereo not shown) [Example 3.32, 8-(1-(3-chloro-2,6-difluorophenylamino)ethyl)-N,N-dimethyl-2-morpholino-4-oxo-4H-chromene-6-carboxamide] are within 1.5-fold of each other in IC50: 9 nM for the first, 8 nM for the second.

Compared with `Cc1c(C#N)cccc1NC(C)c1cc(C(=O)N(C)C)cc2c(=O)cc(N3CCOCC3)oc12` (stereo not shown) [Example 3.29, 8-(1-(3-cyano-2-methylphenylamino)ethyl)-N,N-dimethyl-2-morpholino-4-oxo-4H-chromene-6-carboxamide], `CC(Nc1cccc(F)c1C#N)c1cc(C(=O)N(C)C)cc2c(=O)cc(N3CCOCC3)oc12` (stereo not shown) [Example 3.36, 8-(1-(2-cyano-3-fluorophenylamino)ethyl)-N,N-dimethyl-2-morpholino-4-oxo-4H-chromene-6-carboxamide] is 4.8-fold higher in IC50: 5 nM for the first, 24 nM for the second.

`COc1cc(F)cc(NC(C)c2cc(C(=O)N(C)C)cc3c(=O)cc(N4CCOCC4)oc23)c1` (stereo not shown) [Example 3.30, 8-(1-(3-fluoro-5-methoxyphenylamino)ethyl)-N,N-dimethyl-2-morpholino-4-oxo-4H-chromene-6-carboxamide] and `CC(Nc1cc(Cl)cc(Cl)c1)c1cc(C(=O)N(C)C)cc2c(=O)cc(N3CCOCC3)oc12` (stereo not shown) [Example 3.33, 8-(1-(3,5-dichlorophenylamino)ethyl)-N,N-dimethyl-2-morpholino-4-oxo-4H-chromene-6-carboxamide] are within 1.5-fold of each other in IC50: 4 nM for the first, 5 nM for the second.

Going from `COc1c(F)cccc1NC(C)c1cc(C(=O)N(C)C)cc2c(=O)cc(N3CCOCC3)oc12` (stereo not shown) [Example 3.31, 8-(1-(3-fluoro-2-methoxyphenylamino)ethyl)-N,N-dimethyl-2-morpholino-4-oxo-4H-chromene-6-carboxamide] to `CC(c1cc(C(=O)N(C)C)cc2c(=O)cc(N3CCOCC3)oc12)N(C)c1ccccc1` (stereo not shown) [Example 3.40, N,N-dimethyl-8-(1-(methyl(phenyl)amino)ethyl)-2-morpholino-4-oxo-4H-chromene-6-carboxamide], the IC50 rises from 6 nM to 43 nM (7.2-fold). The first is the more potent here.

`CC(c1cc(C(=O)N(C)C)cc2c(=O)cc(N3CCOCC3)oc12)N(C)c1cc(F)cc(Cl)c1` (stereo not shown) [Example 3.37, 8-(1-((3-chloro-5-fluorophenyl)(methyl)amino)ethyl)-N,N-dimethyl-2-morpholino-4-oxo-4H-chromene-6-carboxamide] and `C#Cc1cc(F)cc(N(C)C(C)c2cc(C(=O)N(C)C)cc3c(=O)cc(N4CCOCC4)oc23)c1` (stereo not shown) [Example 3.41, 8-(1-((3-ethynyl-5-fluorophenyl)(methyl)amino)ethyl)-N,N-dimethyl-2-morpholino-4-oxo-4H-chromene-6-carboxamide] are within 1.5-fold of each other in IC50: 12 nM for the first, 14 nM for the second.

`CC(c1cc(C(=O)N(C)C)cc2c(=O)cc(N3CCOCC3)oc12)N(C)c1cc(F)c(F)c(F)c1` (stereo not shown) [Example 3.38, N,N-dimethyl-8-(1-(methyl(3,4,5-trifluorophenyl)amino)ethyl)-2-morpholino-4-oxo-4H-chromene-6-carboxamide] and `CC(c1cc(C(=O)N(C)C)cc2c(=O)cc(N3CCOCC3)oc12)N(C)c1cc(F)cc(F)c1F` (stereo not shown) [Example 3.39, N,N-dimethyl-8-(1-(methyl(2,3,5-trifluorophenyl)amino)ethyl)-2-morpholino-4-oxo-4H-chromene-6-carboxamide] are within 1.5-fold of each other in IC50: 17 nM for the first, 21 nM for the second.

`CCN(CC)C(=O)c1cc(C(C)Nc2cc(F)cc(F)c2)c2oc(N3CCOCC3)cc(=O)c2c1` (stereo not shown) [Example 4.01, 8-(1-(3,5-difluorophenylamino)ethyl)-N,N-diethyl-2-morpholino-4-oxo-4H-chromene-6-carboxamide] gave an IC50 of 4 nM.
